Data on three compounds can be found in patent publication US20250163029A1, “PYRIDONE OR PYRIMIDONE DERIVATIVE AND APPLICATION THEREOF” (Medshine Discovery Inc., priority 2022, published 2025).

In one experiment the test system is SARS-CoV-2 replicon. Description: microbe, parasite or virus in culture. It is filed as cell-based. The note with it: Severe acute respiratory syndrome coronavirus 2, Huh-7, 24 h.
In the next experiment the target is T1, SARS-CoV-2 Mpro (Severe acute respiratory syndrome coronavirus 2, UniProt P0DTD1).
T1 construct: Mpro protein was added to the 384-well assay plate; purchased WuXi AppTec
In words: In vitro anti-novel coronavirus Mpro protease activity. The note with it: 25 nM Mpro protein, 25 μM substrate. In kind it is biochemical. The protocol: (§1) The compound was dissolved in DMSO, and diluted in a 3-fold gradient with Echo655 according to the concentration requirements for the assay to 10 concentration points. Duplicate assays were set at each concentration. The diluted solution was added to a 384-well plate. Mpro protein and substrate were diluted with assay buffer (100 mM NaCl, 20 mM Tris-HCl, 1 mM EDTA). Mpro protein was added to the 384-well assay plate, and incubated with the compound for 30 min at room temperature. Then the substrate was added. The assay concentration of Mpro protein was 25 nM, and the assay concentration of substrate was 25 μM. After incubating for 60 minutes in a 30° C. constant temperature incubator, the fluorescence signal value of Ex/Em=340 nm/490 nm was detected by microplate reader. At the same time, the background well containing the substrate and compound but not containing Mpro protein was detected as control.
as §1, with “EDTA), and” for “EDTA).”, “plate,” for “plate, and”
2) Log (agonist) vs. response—variable slope nonlinear fitting analysis was carried out on the inhibition rate data (inhibition rate %) of the compound by using GraphPad Prism software, and the IC50 value of the compound was obtained.

Structures are written as SMILES.

The EC50 is the midpoint of the concentration-response curve. Low values mean a more potent agent, high ones a less potent agent. A word on the IC50: it is the concentration that inhibits the measured activity by half. A higher IC50 goes with lower potency.

In the experiment on SARS-CoV-2 replicon, `Cn1cnc(Cc2cn(Cc3cc(F)c(F)cc3F)c(Nc3cc4cn(C)nc4cc3Cl)nc2=O)n1` [Compound 4] came in with an EC50 of 66 nM. In addition, it took 25 nM to reach half-maximal inhibition against SARS-CoV-2 Mpro (IC50).
Taken in the same sequence, the figures for `Cn1cnc(Cc2c(F)n(Cc3cc(F)c(F)cc3F)c(Nc3cc4cn(C)nc4cc3Cl)nc2=O)n1` [Compound 8] were 58 nM and 58 nM.
The compound `Cn1cnc(Cc2cn(Cc3cc(F)c(F)c(F)c3F)c(Nc3cc4cn(C)nc4cc3Cl)nc2=O)n1` [Compound 7] had a concentration for a half-maximal effect (EC50) with SARS-CoV-2 replicon of 82 nM. At SARS-CoV-2 Mpro, this compound yielded an IC50 of 62 nM.
